20 molecules from PubChem BioAssay (NCI) can be followed below.

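Values below derive from 48-hour exposures of cells grown in 96-well plates, with endpoints linearly interpolated between the two concentrations bracketing the appropriate inhibition level. TGI marks complete inhibition of growth.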

Test systems include MDA-N; DU-145 prostate; UACC-62 melanoma; MCF7 breast; HCT-15 colon; K-562 leukemia; RPMI-8226 leukemia; NCI/ADR-RES ovarian; SK-MEL-5 melanoma; SF-295 CNS; SNB-75 CNS.
What all share (test): growth of human tumour cells (NCI), 48 h

For the molecule `COC(=O)CC1(O)C(C=C(C)C)C(C(=O)OC)C(=O)C(C(=O)OC)C1C(=O)OC` (stereo not given), the TGI in the test on MDA-N, in the test with DU-145 prostate, in the test on UACC-62 melanoma, in the test with MCF7 breast, with HCT-15 colon and in the test with K-562 leukemia was greater than 100 µM each time. Besides, the TGI in the test with RPMI-8226 leukemia, with NCI/ADR-RES ovarian, in the test with SK-MEL-5 melanoma and in the test with SF-295 CNS was greater than 100 µM throughout.

Regarding `CCO[C@H]1C[C@@H](c2ccccc2)[C@]2(C)C[C@H](C(=O)OC)ON2O1`, the TGI in the test with MDA-N, in the test with DU-145 prostate, with UACC-62 melanoma, in the test with MCF7 breast, in the test with HCT-15 colon and with K-562 leukemia was greater than 100 µM throughout. In addition, the TGI in the test on RPMI-8226 leukemia, with NCI/ADR-RES ovarian, in the test with SK-MEL-5 melanoma and with SF-295 CNS was greater than 100 µM in each case.

As to `CC1(C)SC2C(NC(=O)Cc3ccccc3)C(=O)N2C1C(=O)O` (stereo not given), the TGI in the test with MDA-N, in the test on DU-145 prostate, in the test on UACC-62 melanoma, with MCF7 breast, in the test with HCT-15 colon and in the test on SNB-75 CNS was greater than 100 µM each time. For the same molecule, the TGI in the test with K-562 leukemia, in the test with NCI/ADR-RES ovarian, with SK-MEL-5 melanoma and in the test with SF-295 CNS was greater than 100 µM throughout.

Take `O=C(CN=C(CN(c1ccccc1)c1ccccc1)Oc1c([N+](=O)[O-])cc([N+](=O)[O-])cc1[N+](=O)[O-])N1CCNCC1`: the TGI in the test with MDA-N, with DU-145 prostate, with UACC-62 melanoma, in the test with MCF7 breast, with HCT-15 colon and with SNB-75 CNS was greater than 100 µM each time. In addition, the TGI in the test on K-562 leukemia, with RPMI-8226 leukemia, in the test on SK-MEL-5 melanoma and with SF-295 CNS was greater than 100 µM throughout.

In the case of `N#Cc1nc(Cc2ccccc2)oc1N`, the TGI in the test with MDA-N, in the test on DU-145 prostate, in the test on MCF7 breast, in the test on HCT-15 colon, in the test on K-562 leukemia and in the test with RPMI-8226 leukemia was greater than 100 µM in each case. Further, the TGI in the test with SK-MEL-5 melanoma and in the test with SF-295 CNS was greater than 100 µM each time.

As to `c1ccc(-c2cc(-c3cc(-c4ccccc4)n[nH]3)[nH]n2)cc1`, the TGI in the test on MDA-N, in the test on DU-145 prostate, with UACC-62 melanoma, in the test with MCF7 breast, in the test with HCT-15 colon and with SNB-75 CNS was greater than 100 µM throughout. Further, the TGI in the test with K-562 leukemia, with NCI/ADR-RES ovarian, in the test with SK-MEL-5 melanoma and in the test with SF-295 CNS was greater than 100 µM throughout.

In the case of `CSc1nc(-c2cc3c(c(SC)n2)CCC3)cc2c1CCC2`, the TGI in the test on MDA-N, in the test on DU-145 prostate, with UACC-62 melanoma, in the test with HCT-15 colon, in the test on SNB-75 CNS and with K-562 leukemia was greater than 100 µM throughout. The TGI in the test on RPMI-8226 leukemia, in the test with NCI/ADR-RES ovarian, in the test with SK-MEL-5 melanoma and in the test on SF-295 CNS was greater than 100 µM in each case.

As to `C/C(=N/NC(=S)N(Cc1ccccn1)Cc1ccccn1)c1cnccn1`, the TGI was 31.2 µM with MDA-N; greater than 33.3 µM in the test with DU-145 prostate; greater than 100 µM with MCF7 breast; 87.1 µM in the test with HCT-15 colon; 17.2 µM with SNB-75 CNS; greater than 100 µM in the test with K-562 leukemia. Moreover, the TGI in the test on RPMI-8226 leukemia is greater than 37.4 µM; in the test with SK-MEL-5 melanoma, greater than 37.9 µM; in the test with SF-295 CNS it was 9.37 µM.

On to `C(/C=N/NC1=NCCN1)=N\NC1=NCCN1`, for which the TGI in the test with MDA-N was greater than 100 µM; in the test with UACC-62 melanoma it was greater than 100 µM; with MCF7 breast, greater than 100 µM; in the test on HCT-15 colon it was greater than 100 µM; with SNB-75 CNS it was greater than 100 µM; in the test with K-562 leukemia, 31.6 µM. Moreover, the TGI with RPMI-8226 leukemia, in the test with NCI/ADR-RES ovarian, in the test on SK-MEL-5 melanoma and with SF-295 CNS was greater than 100 µM each time.

As to `COc1cc(/C=C/C(=O)O)ccc1O`, the TGI in the test with MDA-N, in the test with DU-145 prostate, in the test on MCF7 breast, with HCT-15 colon, in the test with SNB-75 CNS and with K-562 leukemia was greater than 100 µM in each case. Moreover, the TGI with RPMI-8226 leukemia, with NCI/ADR-RES ovarian, in the test with SK-MEL-5 melanoma and with SF-295 CNS was greater than 100 µM each time.

On to `CN(C)CCCNC(=O)CNC(=O)c1cc(NC(=O)c2cc(NC(=O)c3cc(NC(=O)CCNC(=O)c4cc(NC(=O)c5cc(NC(=O)c6nccn6C)cn5C)cn4C)cn3C)cn2C)cn1C`, for which the TGI in the test with MDA-N, in the test with DU-145 prostate, with MCF7 breast, in the test with HCT-15 colon, in the test on SNB-75 CNS and in the test with K-562 leukemia was greater than 100 µM each time. Further, the TGI in the test with RPMI-8226 leukemia, in the test with NCI/ADR-RES ovarian, in the test on SK-MEL-5 melanoma and in the test on SF-295 CNS was greater than 100 µM in each case.

On to `Cc1[nH]n(-c2nc(O)c(C)c(=O)[nH]2)c(=O)c1CCO`, for which the TGI in the test with MDA-N, with DU-145 prostate, in the test on UACC-62 melanoma, in the test with MCF7 breast, with HCT-15 colon and in the test with SNB-75 CNS was greater than 100 µM in each case. The TGI in the test with K-562 leukemia, in the test with RPMI-8226 leukemia, in the test with SK-MEL-5 melanoma and with SF-295 CNS was greater than 100 µM throughout.

In the case of `CCCCCC(/C=N/NC(N)=S)C(O)(C(F)(F)F)C(F)(F)F` (stereo not given), the TGI in the test with MDA-N, with DU-145 prostate, with UACC-62 melanoma, with MCF7 breast, in the test with HCT-15 colon and with SNB-75 CNS was greater than 10 µM each time. The TGI in the test on K-562 leukemia, in the test with NCI/ADR-RES ovarian, in the test with SK-MEL-5 melanoma and with SF-295 CNS was greater than 10 µM each time.

`COc1ccccc1/C=C1/Sc2scc(CC(=O)Nc3ccccc3)[n+]2C1=O`: the TGI is 69.9 µM in the test on MDA-N; greater than 100 µM with DU-145 prostate; 45.1 µM in the test on UACC-62 melanoma; greater than 100 µM with MCF7 breast; greater than 100 µM with HCT-15 colon; greater than 100 µM with SNB-75 CNS. Besides, the TGI in the test on NCI/ADR-RES ovarian was 59.9 µM; with SK-MEL-5 melanoma it was 36 µM; in the test with SF-295 CNS, greater than 100 µM.

Consider `COC(=O)c1cc(C)ccc1CC(Cc1ccccc1C)C(=O)OC` (stereo not given), for which the TGI in the test on MDA-N was greater than 100 µM; with DU-145 prostate it was greater than 100 µM; in the test with UACC-62 melanoma, greater than 100 µM; in the test on MCF7 breast, 94.8 µM; in the test with HCT-15 colon, greater than 100 µM; in the test on SNB-75 CNS, greater than 100 µM. Moreover, the TGI in the test on K-562 leukemia is greater than 100 µM; with NCI/ADR-RES ovarian, greater than 100 µM; in the test on SK-MEL-5 melanoma, 28.4 µM; in the test on SF-295 CNS it was greater than 100 µM.

With `Cc1ccc(NNc2cc(=O)[nH]c(=O)[nH]2)cc1Cl`, the TGI with MDA-N is 28.6 µM; in the test on DU-145 prostate, greater than 100 µM; in the test with UACC-62 melanoma, greater than 100 µM; in the test with HCT-15 colon, 22.7 µM; in the test with SNB-75 CNS, greater than 100 µM; in the test on K-562 leukemia, greater than 100 µM. Also, the TGI in the test on RPMI-8226 leukemia was 49.2 µM; with NCI/ADR-RES ovarian it was greater than 100 µM; in the test with SK-MEL-5 melanoma, greater than 100 µM; in the test on SF-295 CNS, greater than 100 µM.

As for `O/N=C1\CC2(N3CCOCC3)CCC1(Cc1ccccc1)CC2`, the TGI was greater than 100 µM in the test with MDA-N; greater than 100 µM in the test with DU-145 prostate; greater than 100 µM with MCF7 breast; greater than 100 µM with HCT-15 colon; 34.9 µM with SNB-75 CNS; greater than 100 µM in the test with K-562 leukemia. Moreover, the TGI is greater than 100 µM in the test with NCI/ADR-RES ovarian, greater than 100 µM with SK-MEL-5 melanoma and 61.2 µM with SF-295 CNS.

Take `C=CCC1(O)c2cccc(O)c2C(=O)c2cccc(O)c21` (stereo not given): the TGI was 31.1 µM in the test on MDA-N; 54.5 µM with DU-145 prostate; 76.9 µM in the test on MCF7 breast; 51.8 µM in the test with HCT-15 colon; 52 µM in the test on SNB-75 CNS; greater than 100 µM with K-562 leukemia. Further, the TGI in the test with RPMI-8226 leukemia is 76.1 µM; in the test on NCI/ADR-RES ovarian, 40.2 µM; in the test with SK-MEL-5 melanoma it was 26.4 µM; with SF-295 CNS, 38.3 µM.

For the molecule `O=S(=O)(O)Nc1ccc(-c2nc3ccccc3s2)cc1Cl`, the TGI with MDA-N, in the test on DU-145 prostate, in the test on UACC-62 melanoma, with HCT-15 colon, in the test on SNB-75 CNS and with K-562 leukemia was greater than 100 µM each time. Moreover, the TGI in the test on RPMI-8226 leukemia, in the test with NCI/ADR-RES ovarian, in the test with SK-MEL-5 melanoma and in the test with SF-295 CNS was greater than 100 µM in each case.

Take `CSCCCNC(=O)c1csc([C@@H](CSC)NC(=O)CCNC(=O)[C@@H](NC(=O)OCC(Br)(Br)Br)C(C)O)n1` (stereo not given in full): the TGI in the test on MDA-N, in the test on DU-145 prostate, in the test with UACC-62 melanoma, in the test with MCF7 breast, in the test on HCT-15 colon and in the test on SNB-75 CNS was greater than 100 µM each time. Moreover, the TGI with K-562 leukemia, in the test with NCI/ADR-RES ovarian, in the test with SK-MEL-5 melanoma and in the test with SF-295 CNS was greater than 100 µM in each case.
